Measurements from ChEMBL document CHEMBL5316268 (J Med Chem, 2023).
Values after ≈ are worked out from the molar mass of the structure shown. Active and inactive are the calls of the source. The calls are words filed in the database; no cut-off is given here.

How the values were obtained:
[1] = Cmax in CD rat at 500 mg/kg, po measured for 24 hrs by LC-MS/MS analysis; assay type: ADME, organism-based; set-up: dose 500 mg/kg, time 24 hrs, route po; settings: in vivo
Cytochrome P450 2D6 = Cytochrome P450 2D6 (Homo sapiens, UniProt P10635); assay: Inhibition of human CYP2D6 at 10 uM; assay type: ADME
5'-nucleotidase [2] = molecular target: T1, 5'-nucleotidase (Homo sapiens, UniProt P21589); assay: Inhibition of CD73 in human plasma derived from ovarian cancer patient incubated for 15 mins in presence of 15N5-AMP by LC/MS analysis; assay type: cell-free
5'-nucleotidase [3] = molecular target: T1, 5'-nucleotidase; assay: Competitive inhibition of cell surface anchored CD73 (unknown origin) expressed in human SK-MEL-28 cells assessed as inhibition constant incubated for 30 mins by malachite green assay; assay type: cell-based
[4] = Drug concentration in CD rat plasma at 50 to 500 mg/kg, po measured for 24 hrs by LC-MS/MS analysis; assay type: ADME, organism-based; settings: dose 50-500 mg/kg
[5] = AUC (0 to 24 hrs) in CD rat at 200 mg/kg, po measured for 24 hrs by LC-MS/MS analysis; assay type: ADME, organism-based; set-up: dose 200 mg/kg, time 24 hrs, route po; settings: in vivo
[6] = Selectivity ratio of IC50 for CD73 in human plasma to IC50 for C-terminal 6His-tagged recombinant human CD73 (27 to 547 residues) expressed in CHO cells; assay type: cell-based
EG7 = assay: Antitumor activity against mouse EG7 cells implanted in C57BL/6 mouse assessed as reduction in tumor volume at 100 mg/kg, po bid administered for 21 days in presence of anti-PD-L1 antibody; assay type: functional, organism-based; settings: time 21.0 day
[7] = In vivo inhibition of plasma CD73 in mouse xenografted with mouse EG7 cells at 50 mg/kg, po bid administered for 20 days and measured after 2 hrs post last dose in presence of 15N5-AMP and TNAP inhibitor by LC/MS analysis relative to control; assay type: functional; settings: EG7, 480 h, time 20 day
[8] = Plasma protein binding in human assessed as unbound fraction; assay type: ADME, cell-free
5'-nucleotidase [9] = molecular target: T1, 5'-nucleotidase; assay: Competitive inhibition of soluble C-terminal 6His-tagged recombinant human CD73 (27 to 547 residues) expressed in CHO cells assessed as inhibition constant incubated for 1 hr by malachite green based spectrophotometer assay; assay type: cell-based
Cytochrome P450 2B6 = molecular target: T2, Cytochrome P450 2B6 (Homo sapiens, UniProt P20813); assay: Inhibition of human CYP2B6 at 10 uM; assay type: ADME
T2 sequence (P20813 whole entry): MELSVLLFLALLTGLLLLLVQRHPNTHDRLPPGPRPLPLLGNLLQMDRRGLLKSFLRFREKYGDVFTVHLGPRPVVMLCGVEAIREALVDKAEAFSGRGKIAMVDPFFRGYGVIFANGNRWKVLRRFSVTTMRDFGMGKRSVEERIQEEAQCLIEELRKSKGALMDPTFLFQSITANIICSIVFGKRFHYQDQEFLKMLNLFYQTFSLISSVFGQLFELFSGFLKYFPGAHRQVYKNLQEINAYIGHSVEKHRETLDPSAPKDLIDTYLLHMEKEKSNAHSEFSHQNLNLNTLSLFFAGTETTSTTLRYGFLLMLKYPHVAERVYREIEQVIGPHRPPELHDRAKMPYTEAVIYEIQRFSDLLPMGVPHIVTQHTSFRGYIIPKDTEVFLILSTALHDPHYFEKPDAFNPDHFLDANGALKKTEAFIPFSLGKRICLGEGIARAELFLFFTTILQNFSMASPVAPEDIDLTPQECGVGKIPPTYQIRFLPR

[10] = Tmax in CD rat at 500 mg/kg, po measured for 24 hrs by LC-MS/MS analysis; assay type: ADME, organism-based; settings: in vivo
Cytochrome P450 2C19 = Cytochrome P450 2C19 (Homo sapiens, UniProt P33261); assay: Inhibition of human CYP2C19 at 10 uM; assay type: ADME
5'-nucleotidase [11] = molecular target: T3, 5'-nucleotidase (Mus musculus, UniProt Q61503); assay: Inhibition of CD73 in mouse plasma incubated for 5 mins in presence of 15N5-AMP by LC/MS analysis; assay type: cell-free
T3 sequence (Q61503 whole entry): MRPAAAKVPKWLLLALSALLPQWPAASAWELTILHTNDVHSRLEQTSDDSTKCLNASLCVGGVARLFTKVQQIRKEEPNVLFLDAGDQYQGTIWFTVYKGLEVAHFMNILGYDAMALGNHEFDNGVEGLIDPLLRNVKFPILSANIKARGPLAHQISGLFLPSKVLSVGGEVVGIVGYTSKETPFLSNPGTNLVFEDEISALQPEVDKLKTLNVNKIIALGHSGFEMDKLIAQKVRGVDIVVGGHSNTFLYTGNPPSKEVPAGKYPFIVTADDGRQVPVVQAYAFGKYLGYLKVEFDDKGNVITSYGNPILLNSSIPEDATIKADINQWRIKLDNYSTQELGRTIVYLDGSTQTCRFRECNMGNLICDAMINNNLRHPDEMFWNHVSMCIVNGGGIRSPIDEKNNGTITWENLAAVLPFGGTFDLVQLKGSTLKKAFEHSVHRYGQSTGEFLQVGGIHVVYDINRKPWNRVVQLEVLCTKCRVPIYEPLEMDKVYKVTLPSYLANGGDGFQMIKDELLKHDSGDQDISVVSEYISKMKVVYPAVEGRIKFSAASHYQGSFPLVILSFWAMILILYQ

Cytochrome P450 2C9 = Cytochrome P450 2C9 (Homo sapiens, UniProt P11712); assay: Inhibition of human CYP2C9 at 10 uM; assay type: ADME
[12] = Drug concentration in mouse plasma at 50 mg/kg, po administered as single dose measured after 24 hrs by LC/MS analysis; assay type: ADME, organism-based
5'-nucleotidase [13] = molecular target: T1, 5'-nucleotidase; assay: Inhibition of CD73 in human plasma derived from TNBC cancer patient incubated for 15 mins in presence of 15N5-AMP by LC/MS analysis; assay type: cell-free
[14] = Plasma protein binding in human at 10 uM assessed as bound fraction; assay type: ADME, cell-free; settings: read-out: PPB (converted)
CD8-positive T cell = assay: Reversal of AMP-mediated suppression of human CD8-positive T cells function assessed as increase in granzyme B level at 0.01 to 1000 nM measured after 4 days by ELISA; assay type: functional, cell-based; settings: dose 0.01-1000 nM, time 4.0 day
[15] = Cytotoxicity against human CD8-positive T cells at 100 uM incubated for 4 days by Cell Titer-Glo assay; assay type: toxicity, cell-based; settings: 96 h, time 4 day
5'-nucleotidase [16] = molecular target: T1, 5'-nucleotidase; assay: Inhibition of CD73 in human plasma incubated for 15 mins in presence of 15N5-AMP by LC/MS analysis; assay type: cell-free
[17] = Cmax in CD rat at 50 mg/kg, po measured for 24 hrs by LC-MS/MS analysis; assay type: ADME, organism-based; set-up: dose 50 mg/kg, time 24 hrs, route po; settings: in vivo
[18] = AUC (0 to 24 hrs) in CD rat at 50 mg/kg, po measured for 24 hrs by LC-MS/MS analysis; assay type: ADME, organism-based; set-up: time 24 hrs, dose 50 mg/kg, route po; settings: in vivo
[19] = Aqueous solubility of compound at pH 1 to 7; assay type: physicochemical; settings: aqueous solution
[20] = Plasma protein binding in rat at 10 uM assessed as bound fraction; assay type: ADME, cell-free; settings: read-out: PPB (converted)

T1 sequence (P21589 whole entry): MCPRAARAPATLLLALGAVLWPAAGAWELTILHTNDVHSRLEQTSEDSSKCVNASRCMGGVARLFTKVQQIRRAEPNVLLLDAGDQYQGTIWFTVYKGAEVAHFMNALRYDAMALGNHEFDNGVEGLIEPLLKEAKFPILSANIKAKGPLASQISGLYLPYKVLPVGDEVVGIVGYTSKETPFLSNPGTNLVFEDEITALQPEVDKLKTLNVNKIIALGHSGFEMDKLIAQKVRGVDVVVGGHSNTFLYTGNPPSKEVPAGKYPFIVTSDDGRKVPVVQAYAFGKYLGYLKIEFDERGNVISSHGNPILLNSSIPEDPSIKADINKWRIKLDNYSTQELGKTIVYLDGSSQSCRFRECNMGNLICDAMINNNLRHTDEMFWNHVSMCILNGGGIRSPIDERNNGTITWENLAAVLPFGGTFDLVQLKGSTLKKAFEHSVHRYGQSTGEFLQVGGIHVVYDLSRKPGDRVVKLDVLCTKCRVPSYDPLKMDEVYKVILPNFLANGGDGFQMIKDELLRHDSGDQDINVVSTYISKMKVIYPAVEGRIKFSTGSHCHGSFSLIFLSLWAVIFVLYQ
Sequence of Cytochrome P450 2C19 (P33261 whole entry): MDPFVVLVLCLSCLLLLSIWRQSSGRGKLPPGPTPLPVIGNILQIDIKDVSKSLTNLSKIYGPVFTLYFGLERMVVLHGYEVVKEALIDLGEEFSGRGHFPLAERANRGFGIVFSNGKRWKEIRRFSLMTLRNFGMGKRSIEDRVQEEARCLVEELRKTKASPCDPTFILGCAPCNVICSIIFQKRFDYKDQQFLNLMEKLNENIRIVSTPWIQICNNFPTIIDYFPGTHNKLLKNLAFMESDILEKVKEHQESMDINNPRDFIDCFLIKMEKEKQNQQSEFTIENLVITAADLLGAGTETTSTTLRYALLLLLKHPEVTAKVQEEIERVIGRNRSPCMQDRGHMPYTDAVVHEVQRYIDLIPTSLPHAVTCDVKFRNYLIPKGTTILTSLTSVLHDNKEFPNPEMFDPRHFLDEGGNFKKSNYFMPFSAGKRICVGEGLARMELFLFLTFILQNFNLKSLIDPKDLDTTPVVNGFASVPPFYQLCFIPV
Sequence of Cytochrome P450 2D6 (P10635 whole entry): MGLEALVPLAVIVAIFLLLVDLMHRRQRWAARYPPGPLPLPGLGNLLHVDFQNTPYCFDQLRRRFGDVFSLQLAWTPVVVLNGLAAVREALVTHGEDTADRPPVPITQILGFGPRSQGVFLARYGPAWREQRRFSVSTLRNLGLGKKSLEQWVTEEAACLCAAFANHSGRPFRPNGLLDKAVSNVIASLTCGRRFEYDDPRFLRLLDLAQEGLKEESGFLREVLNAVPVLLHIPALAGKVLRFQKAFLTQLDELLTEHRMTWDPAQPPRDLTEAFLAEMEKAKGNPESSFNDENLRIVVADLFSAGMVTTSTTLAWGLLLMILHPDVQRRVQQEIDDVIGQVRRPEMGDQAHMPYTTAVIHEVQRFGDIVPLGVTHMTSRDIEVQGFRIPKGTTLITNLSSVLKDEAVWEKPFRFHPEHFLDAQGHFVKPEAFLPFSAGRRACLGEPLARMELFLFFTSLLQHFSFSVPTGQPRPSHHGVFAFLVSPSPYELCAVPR
Sequence of Cytochrome P450 2C9 (P11712 whole entry): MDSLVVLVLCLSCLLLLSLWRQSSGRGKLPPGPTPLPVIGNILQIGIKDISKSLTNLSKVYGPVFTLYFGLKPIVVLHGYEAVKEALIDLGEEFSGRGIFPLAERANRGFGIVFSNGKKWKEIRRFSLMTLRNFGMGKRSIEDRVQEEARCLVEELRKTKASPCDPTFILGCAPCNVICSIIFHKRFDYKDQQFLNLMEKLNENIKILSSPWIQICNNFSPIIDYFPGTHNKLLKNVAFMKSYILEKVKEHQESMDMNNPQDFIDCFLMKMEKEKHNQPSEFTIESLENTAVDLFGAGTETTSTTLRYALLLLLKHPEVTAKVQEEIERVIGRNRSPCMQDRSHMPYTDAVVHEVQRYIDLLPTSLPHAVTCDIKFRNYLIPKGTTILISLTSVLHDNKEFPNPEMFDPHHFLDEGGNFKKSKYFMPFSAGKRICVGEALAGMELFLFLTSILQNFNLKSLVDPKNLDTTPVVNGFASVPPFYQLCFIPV

With `C#C[C@@]1(O)[C@@H](COC(Cc2ccc(N3CCCNC3=O)cc2)(C(=O)O)C(=O)O)O[C@@H](n2cnc3c(N)nc(Cl)nc32)[C@@H]1O` the Cmax [1] was 11000 nM, the “inhibition (INH)” value (Cytochrome P450 2D6) was “Not Active” and the IC50 (5'-nucleotidase [2]) was 0.15 nM. The Ki (5'-nucleotidase [3]) was 0.11 nM, the concentration at 24 h [4] was greater than 3 nM and the AUC(0-t) at 24 h [5] was 6090 ng·h/mL. For the same compound, the Ratio IC50 [6] was 2.2, the Activity (EG7) was “Active” and the inhibition in vivo at 50 mg/kg [7] was 92%. The fraction unbound [8] was 0.42, the Ki (5'-nucleotidase [9]) was 0.038 nM and the “inhibition (INH)” value (Cytochrome P450 2B6) was “Not Active”. The Tmax [10] was 18 min, the “inhibition (INH)” value (Cytochrome P450 2C19) was “Not Active” and the IC50 (5'-nucleotidase [11]) was 1.2 nM. For the same compound, the “inhibition (INH)” value (Cytochrome P450 2C9) was “Not Active”, the concentration at 24 h [12] was greater than 1 nM and the IC50 (5'-nucleotidase [13]) was 0.18 nM. For the same compound, the fraction unbound at 10 µM [14] was 0.42, the Activity (CD8-positive T cell) was “Active” and the Activity [15] was “Non-Toxic”. The IC90 (5'-nucleotidase [16]) was 3 nM, the Cmax [17] was 74 nM and the AUC [18] was 580 ng·h/mL. It also gave a solubility [19] of 3880 µg/mL (≈ 6.3 mM) and a fraction unbound at 10 µM [20] of 0.29.
